{"source": "patent US20230152316A1", "about": "“SARS-COV2 SPIKE PROTEIN BINDING PEPTIDES” (priority 2020, published 2023)", "target": "SARS-CoV-2-RBD (insect-derived) (Severe acute respiratory syndrome coronavirus 2, UniProt P0DTC2, F486P)", "data": [{"sequence": "TFLDKFNHEAED [SEQ ID NO: 15]", "values": [{"measurement": "binding to SARS-CoV-2-RBD", "value": "did not bind"}]}]}
